Entries after “also recorded” stand apart in the source; their conditions may differ. *1 amine or outer side, *2 acyl side, *3 side chain or, on linkers, in order; H or OH if unused. Where a SMILES comes first, the peptide text is derived from it. Bridges are numbered along the chain shown (N, C = ends). Roman numbers before positions name the chains, in order. [ ]: non-standard residue; d: D form. Actinocin(9to1) = Cc1c2oc3c(C)ccc(C(=O)[*:1])c3nc-2c(C(=O)[*:2])c(N)c1=O; NMeV = CN[C@H](C(=O)O)C(C)C; Sar = CNCC(=O)O
What was measured:
Assay type in all cases: cell-based, human
[1] = test system: thymidylate synthase (TS); experiment: Luciferase induction in H630 cells containing pG3E1-2TBE-Neo by acyl homoserine lactone; settings: 18 h
Source text: FIG. 7. Induction of luciferase as a function of 3-oxo-6-hexanoyl-homoserine lactone concentrations. H630 cells containing pG3E1-2TBE-Neo were exposed to the indicated concentrations of 3-oxo-6-hexanoyl homoserine lactone for 18 hrs then analyzed for luciferase activity.
FIG. 8. Comparison of 5-fluorouracil (5-FU) and 3-oxo-hexanoyl-homoserine lactone on induction of luciferase. H630 cells containing pG3E1-2TBE-Neo were exposed to the indicated concentrations of each compound for 18 hrs and analyzed for luciferase activity.
H630 cells containing pG3E1-2TBE-Neo were exposed to the indicated concentrations of 3-oxo-6-hexanoyl homoserine lactone for 18 h then analyzed for luciferase activity (FIG. 7).

[2] = test system: thymidylate synthase (TS); experiment: Down-regulation of TS in H630 cells treated with acyl-homoserine lactones (Western blotting); settings: overnight (approximately 16 hours)
Source text: FIG. 6. A representation of the ability of acyl homoserine lactones to down-regulate TS in H630 cells.
The signaling molecules produced by the rTS signaling pathway cause a decrease in the amount of TS found in cells. These signaling molecules can simulate the effects of the compound 3-oxo-hexanoyl homoserine lactone in activating the receptor for this compound when it is present in a recombinant bacteria. […] This hypothesis was validated by the results of an experiment portrayed in FIG. 6. Accordingly, the down-regulation of TS in H630 (human colon cancer) cells treated with acyl-homoserine lactones was tested. Cells growing in RPMI 1640 culture medium, supplemented with 10% dialyzed fetal bovine serum at 37° C. in an atmosphere of 95:5 air:CO2. The compounds with the structures shown were added to the cells and allowed to incubate overnight (approximately 16 hours). The cells were extracted and TS measured by Western blotting as described. The compounds from top to bottom are: (1) 3-hydroxy butanoyl homoserine lactone, (2) butanoyl homoserine lactone; (3) 3-oxo-hexanoyl homoserine lactone; (4) d, 1-hexanoyl homoserine lactone, and (5) 1-homoserine lactone. Tubulin is shown as a loading standard.

[3] = test system: thymidylate synthase (TS); experiment: Luciferase assay in stably transfected H630-C6 cells (pG3E1-2TBE-Neo); settings: H630-C6 cells
Description: FIGS. 3a-3j. RLU production in H630-C6 cells in response to TS inhibitors. H630-C6 cells were evaluated for luciferase activity in response to treatment with the indicated compounds. The cells were exposed to the compounds at the indicated concentrations for 18 hr and luciferase assays were then performed according to the manufacturer's instructions. The mean values of triplicates or quadruplicates are shown along with the standard derivations.
This example describes the stable transfection of cells with the DNA construct of the present invention. To facilitate selection of stable transformants, we added a neomycin-resistance gene to the pG3E1-2TBE (FIG. 1) to generate a new plasmid termed pG3E1-2TBE-Neo as follows. For stable transfection, pG3E1-2TBE-Neo was linearized at the ampicillin resistance gene with Ase I and was introduced into H630 cells as described above. At 24 hrs post-transfection, the cells were exposed to 400 μg/ml of G418 for two weeks. Individual clones were picked at that time and screened for their ability to induce luciferase in response to treatment with 5-FU, a known TS inhibitor. Following selection with G418 and evaluation for changes in luciferase activity after exposure of the cells to 5-FU, the cloned subline H630/pG3E1-2TBE-Neo-L1-2-C6 (H630-C6) was chosen for further study.
The stably transfected H630-C6 cell line was maintained in RPMI 1640 plus 10% dialyzed FBS and 400 μg/ml of geneticin (G418). For luciferase assays, 2×10^4 cells were seeded in each well of a 24-well plate in RPMI 1640 medium plus 10% FBS without G418 and were allowed to attach at least six hr, followed by drug exposure overnight (approximately 18 hr). The cells were then washed with PBS (137 mM NaCl, 2.7 mM KCl, 4.3 mM Na2HPO4, 1.4 mM KH2PO4, pH 7.4), lysed with Passive Lysis Buffer (Promega, Madison) and assayed for luciferase activity using the Luciferase Assay System (Promega, Madison, Wis.) according to the manufacturer's instructions. Relative light units (RLU) were measured with a Lumat LB 9501 luminometer (EG & G Berthold, Wildbad, Germany).
To test H630-C6 as a tool to identify TS modulators three different classes of compounds, i.e., specific or predominantly specific TS inhibitors, agents that inhibit folate pathways or inhibit TS as well as having other targets, and agents that act through TS unrelated sites of action were evaluated for their ability to induce changes in luciferase activity.

[4] = test system: thymidylate synthase (TS); experiment: Evaluation of TS expression by Western blotting in H630-C6 cells
Description: FIGS. 4a and 4b. Evaluation of TS expression by Western blotting. […] The cells were harvested for Western blots.
This example describes the relationship between TS levels and luciferase production by various known TS inhibitors. Western blotting was performed as previously described (Dolnick and Black, 1996). Briefly, H630-C6 cells were washed with PBS and extracted with RIPA buffer. 10 μg of total protein was resolved by electrophoresis in a 10% SDS-PAGE and was blotted onto a PVDF membrane (Immobilon-P, Millipore, Bedford, Mass.). The membrane was hybridized with rabbit polyclonal antibody against TS (a gift from Dr. Edward Chu, VA Cancer Center, Yale University, West Haven, Conn.) diluted in SuperBlock Blocking Buffer (Pierce, Rockford, Ill.) plus 0.25% Tween 20 for one hour and hybridized with HRP-linked anti-rabbit secondary antibody (Jackson Laboratories) for an additional one hour. The membrane was detected with SuperSignal West Dura Extended Duration Substrate (Pierce, Rockford, Ill.) and was visualized by exposing the blot to Kodak XAR-5 film. […] The resulting signal was detected as described above.
The induction of luciferase activity depends upon the ability to reduce the amount of endogenous TS bound to the TBEs in the recombinant luciferase transcripts. Dissociation of TS from the luciferase reporter mRNA is expected to be accompanied by the removal of TS from TBEs located in other mRNAs as well, such as endogenous TS mRNA. Therefore, an increase in TS is expected to accompany the increase in luciferase. To verify whether a translational mechanism is involved we evaluated the levels of TS from cells treated with the compounds described above by Western blotting.

TS mRNA = experiment: Evaluation of TS mRNA expression by RT-PCR in H630-C6 cells; settings: 18 hr exposure
Description: FIGS. 5a and 5b. Evaluation of TS mRNA expression by RT-PCR. H630-C6 cells were exposed to the indicated compounds for 18 hr and total RNA was obtained for RT-PCR. Results are shown for 35 cycles of amplification. […] Similar results were obtained at lower cycles (data not shown).
This example describes the TS mRNA levels in the presence of various TS inhibitors. RNA was prepared using an RNAqueous kit (Ambion, Austin, Tex.). Reverse transcription was done using a Cells-to-cDNA kit (Ambion, Austin, Tex.). Polymerase chain reaction (PCR) was performed as described previously (Dolnick et al., 1992). Primers used for TS mRNA are 5′-TTTGGACAGCCTGGGATTCTC-3′ (Sense—SEQ ID NO:6) and 5′-AAAGCACCCTAAACAGCCATT-3′ (antisense—SEQ ID NO:7), generated a 600-bp PCR product. Primers used for β-actin are 5′-CAGCTCACCATGGATGATGATA-3′ (sense—SEQ ID NO:8) and 5′-CCA GAC GCA GGA TGG CAT-3′ (antisense—SEQ ID NO:9), generated a 543-bp PCR product. The PCR cycling condition used was: 95° C. for 30 seconds, 60° C. for 30 seconds, 72° C. for 1 minute, repeated for 25, 30 and 35 cycles (for TS) or 20, 25 and 30 cycles (for β-actin). Product formation was evaluated by ethidium bromide staining and was resolved by electrophoresis in 1.5% agarose gels.

Row | Structure (SMILES) | luciferase activity as a function of concentration [1] | down-regulation of TS (Western blotting), in words [2] | increase of luciferase ([3]; 50 μM, 18 hr) | change in luciferase activity (RLU), in words ([3]; 18 hr exposure) | TS protein level by Western blotting ([4]; H630-C6 cells, 18 hr treatment) | TS levels as a function of time (time course) ([4]; by 24 hr, data not shown) | TS mRNA level by RT-PCR (TS mRNA)
1 | CCCC(=O)CC(=O)N[C@H]1CCOC1=O [3-oxo-hexanoyl homoserine lactone] | increased the luciferase activity | most active of all the compounds shown | – | – | – | – | –
2 | Cc1c2oc3c(C)ccc(C(=O)N[C@@H]4C(=O)N[C@H](C(C)C)C(=O)N5CCC[C@H]5C(=O)N(C)CC(=O)N(C)[C@@H](C(C)C)C(=O)O[C@@H]4C)c3nc-2c(C(=O)N[C@@H]2C(=O)N[C@H](C(C)C)C(=O)N3CCC[C@H]3C(=O)N(C)CC(=O)N(C)[C@@H](C(C)C)C(=O)O[C@@H]2C)c(N)c1=O [Act D, actinomycin D] (I: T[dV]P[Sar][NMeV] / II: T[dV]P[Sar][NMeV]; ester I:1-I:C, II:1-II:C; linker I:N-II:N via Actinocin(9to1)) | – | – | up to 3.5 fold | concentration-dependent increase of RLU | no increase of TS protein; also recorded: did not induce TS levels | dropped | not altered

Reference: US20040161781A1, “Compositions and methods for identifying thymidylate synthase modulators” (priority 2002, published 2004)
